In PubChem BioAssay (NCI):
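Five concentrations, 48 hours, 96-well plates. At the GI50, growth is halved. At the TGI there is no net growth.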

Columns and labels:
Assay in all cases: NCI-60 cell line screen, 48 h
[1] = system: 786-0 renal
[2] = system: A549 NSCLC
[3] = system: ACHN renal
[4] = system: CAKI-1 renal
[5] = system: CCRF-CEM leukemia
[6] = system: COLO 205 colon
[7] = system: DU-145 prostate
[8] = system: EKVX NSCLC
[9] = system: HCC-2998 colon
[10] = system: HCT-116 colon
[11] = system: HCT-15 colon
[12] = system: HOP-62 NSCLC
[13] = system: HS 578T breast
[14] = system: HT29 colon
[15] = system: IGROV1 ovarian
[16] = system: K-562 leukemia
[17] = system: KM12 colon
[18] = system: LOX IMVI melanoma
[19] = system: M14 melanoma
[20] = system: MALME-3M melanoma
[21] = system: MCF7 breast
[22] = system: MDA-MB-231 breast
[23] = system: MDA-MB-435
[24] = system: NCI-H226 lung
[25] = system: NCI-H23 lung
[26] = system: NCI-H460 lung
[27] = system: NCI-H522 lung
[28] = system: NCI/ADR-RES ovarian
[29] = system: OVCAR-3 ovarian
[30] = system: OVCAR-4 ovarian
[31] = system: OVCAR-5 ovarian
[32] = system: OVCAR-8 ovarian
[33] = system: PC-3 prostate
[34] = system: RPMI-8226 leukemia
[35] = system: SF-268 CNS
[36] = system: SF-295 CNS
[37] = system: SK-MEL-2 melanoma
[38] = system: SK-MEL-28 melanoma
[39] = system: SK-MEL-5 melanoma
[40] = system: SK-OV-3 ovarian
[41] = system: SN12C renal
[42] = system: SNB-19 CNS
[43] = system: SNB-75 CNS
[44] = system: SR leukemia
[45] = system: SW-620 colon
[46] = system: T-47D breast
[47] = system: TK-10 renal
[48] = system: U251 CNS
[49] = system: UACC-257 melanoma
[50] = system: UACC-62 melanoma
[51] = system: UO-31 renal
[52] = system: A498 renal
[53] = system: BT-549 breast
[54] = system: HOP-92 NSCLC
[55] = system: MOLT-4 leukemia
[56] = system: RXF 393 renal
[57] = system: SF-539 CNS

`COC(=O)c1ccc2c(c1)C(=O)c1c-2n(CCCCl)c(=O)c2cc(OC)c(OC)cc12` gave a GI50 [1] greater than 100 µM, a TGI [1] greater than 100 µM and a GI50 [2] greater than 100 µM. It also gave a TGI [2] greater than 100 µM, a GI50 [3] greater than 100 µM and a TGI [3] greater than 100 µM. For the same compound, the GI50 [4] was greater than 100 µM, the TGI [4] was greater than 100 µM and the GI50 [5] was greater than 100 µM. It also gave a TGI [5] greater than 100 µM, a GI50 [6] greater than 100 µM and a TGI [6] greater than 100 µM. For the same compound, the GI50 [7] was greater than 100 µM, the TGI [7] was greater than 100 µM and the GI50 [8] was greater than 100 µM. The TGI [8] was greater than 100 µM, the GI50 [9] was greater than 100 µM and the TGI [9] was greater than 100 µM. It also gave a GI50 [10] greater than 100 µM, a TGI [10] greater than 100 µM and a GI50 [11] greater than 100 µM. For the same compound, the TGI [11] was greater than 100 µM, the GI50 [12] was greater than 100 µM and the TGI [12] was greater than 100 µM. For the same compound, the GI50 [13] was greater than 100 µM, the TGI [13] was greater than 100 µM and the GI50 [14] was greater than 100 µM. It also gave a TGI [14] greater than 100 µM, a GI50 [15] greater than 100 µM and a TGI [15] greater than 100 µM. It also gave a GI50 [16] greater than 100 µM, a TGI [16] greater than 100 µM and a GI50 [17] greater than 100 µM. The TGI [17] was greater than 100 µM, the GI50 [18] was greater than 100 µM and the TGI [18] was greater than 100 µM. The GI50 [19] was greater than 100 µM, the TGI [19] was greater than 100 µM and the GI50 [20] was greater than 100 µM. For the same compound, the TGI [20] was greater than 100 µM, the GI50 [21] was greater than 100 µM and the TGI [21] was greater than 100 µM. For the same compound, the GI50 [22] was greater than 100 µM, the TGI [22] was greater than 100 µM and the GI50 [23] was greater than 100 µM. The TGI [23] was greater than 100 µM, the GI50 [24] was greater than 100 µM and the TGI [24] was greater than 100 µM. The GI50 [25] was greater than 100 µM, the TGI [25] was greater than 100 µM and the GI50 [26] was greater than 100 µM. For the same compound, the TGI [26] was greater than 100 µM, the GI50 [27] was greater than 100 µM and the TGI [27] was greater than 100 µM. The GI50 [28] was greater than 100 µM, the TGI [28] was greater than 100 µM and the GI50 [29] was greater than 100 µM. For the same compound, the TGI [29] was greater than 100 µM, the GI50 [30] was greater than 100 µM and the TGI [30] was greater than 100 µM. For the same compound, the GI50 [31] was greater than 100 µM, the TGI [31] was greater than 100 µM and the GI50 [32] was greater than 100 µM. The TGI [32] was greater than 100 µM, the GI50 [33] was greater than 100 µM and the TGI [33] was greater than 100 µM. For the same compound, the GI50 [34] was 75.2 µM, the TGI [34] was greater than 100 µM and the GI50 [35] was greater than 100 µM. For the same compound, the TGI [35] was greater than 100 µM, the GI50 [36] was greater than 100 µM and the TGI [36] was greater than 100 µM. For the same compound, the GI50 [37] was greater than 100 µM, the TGI [37] was greater than 100 µM and the GI50 [38] was greater than 100 µM. For the same compound, the TGI [38] was greater than 100 µM, the GI50 [39] was greater than 100 µM and the TGI [39] was greater than 100 µM. It also gave a GI50 [40] of 44.1 µM, a TGI [40] greater than 100 µM and a GI50 [41] greater than 100 µM. It also gave a TGI [41] greater than 100 µM, a GI50 [42] greater than 100 µM and a TGI [42] greater than 100 µM. The GI50 [43] was 12.9 µM, the TGI [43] was 91.6 µM and the GI50 [44] was 0.061 µM. The TGI [44] was greater than 100 µM, the GI50 [45] was greater than 100 µM and the TGI [45] was greater than 100 µM. For the same compound, the GI50 [46] was greater than 100 µM, the TGI [46] was greater than 100 µM and the GI50 [47] was greater than 100 µM. For the same compound, the TGI [47] was greater than 100 µM, the GI50 [48] was greater than 100 µM and the TGI [48] was greater than 100 µM. The GI50 [49] was greater than 100 µM, the TGI [49] was greater than 100 µM and the GI50 [50] was greater than 100 µM. For the same compound, the TGI [50] was greater than 100 µM, the GI50 [51] was greater than 100 µM and the TGI [51] was greater than 100 µM.
`CCN(CC)CCCNc1c2ccc(Cl)cc2nc2ccc(OC)cc12` showed a GI50 [1] of 0.0449 µM, a TGI [1] of 2.15 µM and a GI50 [52] of 1.51 µM. It also gave a TGI [52] of 2.86 µM, a GI50 [2] of 0.0582 µM and a TGI [2] of 5.83 µM. The GI50 [53] was 1.78 µM, the TGI [53] was 3.63 µM and the GI50 [5] was 0.0473 µM. For the same compound, the TGI [5] was 3.67 µM, the GI50 [6] was 0.0398 µM and the TGI [6] was 2.01 µM. It also gave a GI50 [7] of 0.0476 µM, a TGI [7] of 4.08 µM and a GI50 [10] of 0.0307 µM. For the same compound, the TGI [10] was 1.64 µM, the GI50 [11] was 0.0345 µM and the TGI [11] was 2.51 µM. It also gave a GI50 [54] of 1.41 µM, a TGI [54] of 3.62 µM and a GI50 [13] of 2.05 µM. It also gave a TGI [13] of 5.54 µM, a GI50 [14] of 0.033 µM and a TGI [14] of 1.56 µM. For the same compound, the GI50 [16] was 0.0308 µM, the TGI [16] was 6.08 µM and the GI50 [17] was 0.0541 µM. It also gave a TGI [17] of 4.45 µM, a GI50 [18] of 0.0342 µM and a TGI [18] of 1.93 µM. It also gave a GI50 [20] of 1.6 µM, a TGI [20] of 3.38 µM and a GI50 [21] of 0.0377 µM. It also gave a TGI [21] of 3.16 µM, a GI50 [23] of 0.0614 µM and a TGI [23] of 2.04 µM. For the same compound, the GI50 [55] was 0.0338 µM, the TGI [55] was 2.91 µM and the GI50 [24] was 1.84 µM. The TGI [24] was 4.88 µM, the GI50 [26] was 0.0326 µM and the TGI [26] was 1.34 µM. It also gave a GI50 [30] of 0.0304 µM, a TGI [30] of 2.77 µM and a GI50 [32] of 0.0552 µM. The TGI [32] was 3.44 µM, the GI50 [34] was 0.042 µM and the TGI [34] was 2.83 µM. It also gave a GI50 [56] of 0.0403 µM, a TGI [56] of 2.15 µM and a GI50 [35] of 0.0618 µM. For the same compound, the TGI [35] was 3.53 µM, the GI50 [37] was 1.69 µM and the TGI [37] was 3.31 µM. It also gave a GI50 [39] of 1.64 µM, a TGI [39] of 3.02 µM and a GI50 [41] of 0.0575 µM. The TGI [41] was 3.69 µM, the GI50 [42] was 0.0587 µM and the TGI [42] was 4.57 µM. For the same compound, the GI50 [44] was 0.029 µM, the TGI [44] was 3.67 µM and the GI50 [45] was 0.0401 µM. For the same compound, the TGI [45] was 2.36 µM, the GI50 [47] was 1.69 µM and the TGI [47] was 4.83 µM. For the same compound, the GI50 [49] was 1.83 µM, the TGI [49] was 3.41 µM and the GI50 [50] was 1.84 µM. The TGI [50] was 3.55 µM, the GI50 [51] was 1.63 µM and the TGI [51] was 4.83 µM.
Work on `OC(c1cc(-c2ccc(Cl)cc2)nc2c(Cl)cccc12)C1CCCCN1` (centres undefined) yielded a GI50 [3] of 1.53 µM, a TGI [3] of 2.88 µM and a GI50 [4] of 1.16 µM. The TGI [4] was 2.52 µM, the GI50 [6] was 1.7 µM and the TGI [6] was 3.17 µM. The GI50 [7] was 1.71 µM, the TGI [7] was 3.1 µM and the GI50 [54] was 1.02 µM. The TGI [54] was 2.36 µM, the GI50 [17] was 1.85 µM and the TGI [17] was 3.36 µM. It also gave a GI50 [22] of 1.49 µM, a TGI [22] of 3.02 µM and a GI50 [26] of 1.64 µM. It also gave a TGI [26] of 3.15 µM, a GI50 [29] of 1.81 µM and a TGI [29] of 3.35 µM. The GI50 [31] was 1.66 µM, the TGI [31] was 3.26 µM and the GI50 [32] was 2.11 µM. The TGI [32] was 4.63 µM, the GI50 [33] was 1.46 µM and the TGI [33] was 2.91 µM. For the same compound, the GI50 [35] was 1.78 µM, the TGI [35] was 3.4 µM and the GI50 [36] was 1.68 µM. For the same compound, the TGI [36] was 3.28 µM, the GI50 [57] was 1.7 µM and the TGI [57] was 3.15 µM. The GI50 [38] was 1.76 µM, the TGI [38] was 3.23 µM and the GI50 [40] was 1.76 µM. It also gave a TGI [40] of 3.21 µM, a GI50 [41] of 1.6 µM and a TGI [41] of 3.27 µM. It also gave a GI50 [43] of 1.28 µM, a TGI [43] of 2.68 µM and a GI50 [50] of 1.69 µM. For the same compound, the TGI [50] was 3.17 µM.
